# Reference: PubChem BioAssay AID256 (DTP/NCI, 2004)
# Several values for one entry are separate records, joined by “and”; a condition that tells them apart may be missing. Identical values can stand only once. Toxic doses and inconclusive results are not listed.
# Tested on: CD2F1 mice, L1210 leukemia ip, survival T/C
# Experiment: NCI In Vivo Anticancer Drug Screen. Data for tumor model L1210 Leukemia (intraperitoneal) in CD2F1 (CDF1) mice
# Details: higher = longer survival
# In short: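 Implant tumor; dose compound or vehicle; measure endpoint in both groups; report treated divided by control.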
# [1] = endpoint: mean survival time, dose: 100.0 mg/kg/injection, schedule: Q04DX003 (ip), vehicle: saline with Tween-80
# [2] = endpoint: mean survival time, dose: 100.0 mg/kg/injection, schedule: Q04DX003 (ip), vehicle: other
# [3] = endpoint: mean survival time, dose: 200.0 mg/kg/injection, schedule: Q04DX003 (ip), vehicle: other
# [4] = endpoint: mean survival time, dose: 200.0 mg/kg/injection, schedule: Q04DX003 (ip), vehicle: saline with Tween-80
# [5] = endpoint: mean survival time, dose: 100.0 mg/kg/injection, schedule: Q01DX001 (ip), vehicle: saline
# [6] = endpoint: mean survival time, dose: 100.0 mg/kg/injection, schedule: Q04DX003 (ip), vehicle: saline
# [7] = endpoint: mean survival time, dose: 200.0 mg/kg/injection, schedule: Q01DX001 (ip), vehicle: saline
# [8] = endpoint: mean survival time, dose: 200.0 mg/kg/injection, schedule: Q04DX003 (ip), vehicle: saline
# [9] = endpoint: mean survival time, dose: 400.0 mg/kg/injection, schedule: Q01DX001 (ip), vehicle: saline
# [10] = endpoint: mean survival time, dose: 400.0 mg/kg/injection, schedule: Q04DX003 (ip), vehicle: saline
smiles,measurement,setting,value
NC(Cc1ccc(N(CCCl)CCCl)cc1)C(=O)O (stereo unspecified),T/C,"endpoint: mean survival time, dose: 5.0 mg/kg/injection, schedule: Q01DX009 (ip), vehicle: Klucel (hydroxypropylcellulose) (HPC)",106 % of control
same,T/C,"endpoint: mean survival time, dose: 5.0 mg/kg/injection, schedule: Q01DX009 (ip), vehicle: saline with Tween-80",121 % of control
same,T/C,"endpoint: mean survival time, dose: 6.4 mg/kg/injection, schedule: Q01DX001 (ip), vehicle: water",104 % of control
same,T/C,"endpoint: mean survival time, dose: 6.4 mg/kg/injection, schedule: Q11HX001 (ip), vehicle: water",104 % of control
same,T/C,"endpoint: mean survival time, dose: 8.0 mg/kg/injection, schedule: Q01DX001 (ip), vehicle: water",101 % of control
same,T/C,"endpoint: mean survival time, dose: 8.0 mg/kg/injection, schedule: Q11HX001 (ip), vehicle: water",101 % of control
same,T/C,"endpoint: mean survival time, dose: 10.0 mg/kg/injection, schedule: Q01DX001 (ip), vehicle: water",105 % of control
same,T/C,"endpoint: mean survival time, dose: 10.0 mg/kg/injection, schedule: Q01DX009 (ip), vehicle: Klucel (hydroxypropylcellulose) (HPC)",105 % of control
same,T/C,"endpoint: mean survival time, dose: 10.0 mg/kg/injection, schedule: Q01DX009 (ip), vehicle: saline with Tween-80",113 % of control
same,T/C,"endpoint: mean survival time, dose: 10.0 mg/kg/injection, schedule: Q03DX003 (ip), vehicle: Klucel (hydroxypropylcellulose) (HPC)",183 % of control
same,T/C,"endpoint: mean survival time, dose: 10.0 mg/kg/injection, schedule: Q04DX003 (ip), vehicle: Klucel (hydroxypropylcellulose) (HPC)",168 % of control
same,T/C,"endpoint: mean survival time, dose: 10.0 mg/kg/injection, schedule: Q11HX001 (ip), vehicle: water",105 % of control
same,T/C,"endpoint: mean survival time, dose: 12.5 mg/kg/injection, schedule: Q01DX001 (ip), vehicle: water",104 % of control
same,T/C,"endpoint: mean survival time, dose: 12.5 mg/kg/injection, schedule: Q11HX001 (ip), vehicle: water",104 % of control
same,T/C,"endpoint: mean survival time, dose: 20.0 mg/kg/injection, schedule: Q01DX007 (ip), vehicle: Klucel (hydroxypropylcellulose) (HPC)",94 % of control
same,T/C,"endpoint: mean survival time, dose: 20.0 mg/kg/injection, schedule: Q01DX007 (ip), vehicle: saline with Tween-80",113 % of control
same,T/C,"endpoint: mean survival time, dose: 20.0 mg/kg/injection, schedule: Q01DX009 (ip), vehicle: Klucel (hydroxypropylcellulose) (HPC)",86 % of control
same,T/C,"endpoint: mean survival time, dose: 20.0 mg/kg/injection, schedule: Q01DX009 (ip), vehicle: saline with Tween-80",100 % of control
same,T/C,"endpoint: mean survival time, dose: 20.0 mg/kg/injection, schedule: Q04DX003 (ip), vehicle: Klucel (hydroxypropylcellulose) (HPC)",186 % of control
same,T/C,"endpoint: median survival time, dose: 4.0 mg/kg/injection, schedule: Q01DX009 (ip), vehicle: saline",183 % of control
same,T/C,"endpoint: median survival time, dose: 8.0 mg/kg/injection, schedule: Q01DX009 (ip), vehicle: saline",155 % of control
same,T/C,"endpoint: median survival time, dose: 16.0 mg/kg/injection, schedule: Q01DX009 (ip), vehicle: saline",88 % of control
c1ccc(CNCCNCc2ccccc2)cc1,T/C,"endpoint: mean survival time, dose: 100.0 mg/kg/injection, schedule: Q01DX009 (ip), vehicle: saline with Tween-80",95 % of control
same,T/C,[1],97 % of control
O=C(O)Cc1ccc(Cl)c(Cl)c1,T/C,"endpoint: mean survival time, dose: 50.0 mg/kg/injection, schedule: Q04DX003 (ip), vehicle: other",97 % of control
same,T/C,[2],100 % of control
same,T/C,[3],96 % of control
C/C=C(/C)C(=O)O[C@H]1CC[C@@]2(C)[C@@H]3CC[C@H]4[C@]5(O)C[C@H](O)[C@@]6(O)[C@@H](CN7C[C@@H](C)CC[C@H]7[C@@]6(C)O)[C@]5(O)C[C@@]42O[C@@]13O,T/C,"endpoint: mean survival time, dose: 0.5 mg/kg/injection, schedule: Q01DX009 (ip), vehicle: saline with Tween-80",101 % of control
same,T/C,"endpoint: mean survival time, dose: 1.0 mg/kg/injection, schedule: Q01DX009 (ip), vehicle: saline with Tween-80",101 % of control
same,T/C,"endpoint: mean survival time, dose: 2.0 mg/kg/injection, schedule: Q01DX009 (ip), vehicle: saline with Tween-80",101 % of control
CC1=Nc2cc(Cl)c(Cl)cc2N(C)/C1=C/C1=C(Cl)C(=O)c2cc3c(Cl)ccc(Cl)c3cc2C1=O,T/C,[1],94 % of control
same,T/C,[4],97 % of control
CC(C)=CC(C)=Nc1ccccc1,T/C,[5],90 % of control
same,T/C,[6],102 % of control
same,T/C,[7],96 % of control
same,T/C,[8],96 % of control
same,T/C,[9],98 % of control
same,T/C,[10],104 % of control
CCOC(=O)C1CC2(CC(C(=O)O)C2)C1 (stereo unspecified),T/C,[5],97 % of control
same,T/C,[7],93 % of control
same,T/C,[9],105 % of control
CC1C(=O)C(Br)CC2C1(C)CCC1C2(C)CCC2(C)C3CC(C)(C)CCC3(C)CCC12C (stereo unspecified),T/C,[5],97 % of control
same,T/C,[7],97 % of control
same,T/C,[9],97 % of control
CCCCCCCCCCCC(=O)CCCC,T/C,"endpoint: mean survival time, dose: 100.0 mg/kg/injection, schedule: Q01DX009 (ip), vehicle: other",98 % of control
same,T/C,[2],102 % of control
same,T/C,"endpoint: mean survival time, dose: 200.0 mg/kg/injection, schedule: Q01DX009 (ip), vehicle: other",104 % of control
same,T/C,[3],91 % of control
same,T/C,"endpoint: mean survival time, dose: 400.0 mg/kg/injection, schedule: Q01DX009 (ip), vehicle: other",106 % of control
same,T/C,"endpoint: mean survival time, dose: 400.0 mg/kg/injection, schedule: Q04DX003 (ip), vehicle: other",97 % of control
CCOC(=O)C[P+](c1ccccc1)(c1ccccc1)c1ccccc1,T/C,"endpoint: mean survival time, dose: 3.13 mg/kg/injection, schedule: Q01DX009 (ip), vehicle: saline sonified",93 % of control
same,T/C,"endpoint: mean survival time, dose: 3.13 mg/kg/injection, schedule: Q04DX003 (ip), vehicle: saline with Tween-80",98 % of control
same,T/C,"endpoint: mean survival time, dose: 6.25 mg/kg/injection, schedule: Q01DX009 (ip), vehicle: saline sonified",94 % of control
same,T/C,"endpoint: mean survival time, dose: 6.25 mg/kg/injection, schedule: Q04DX003 (ip), vehicle: saline with Tween-80",98 % of control
same,T/C,"endpoint: mean survival time, dose: 12.5 mg/kg/injection, schedule: Q01DX009 (ip), vehicle: saline sonified",93 % of control
same,T/C,"endpoint: mean survival time, dose: 12.5 mg/kg/injection, schedule: Q04DX003 (ip), vehicle: saline with Tween-80",98 % of control
same,T/C,"endpoint: mean survival time, dose: 25.0 mg/kg/injection, schedule: Q01DX009 (ip), vehicle: saline sonified",93 % of control
same,T/C,"endpoint: mean survival time, dose: 25.0 mg/kg/injection, schedule: Q04DX003 (ip), vehicle: saline with Tween-80",95 % of control
OC(c1c(F)c(F)c(C(O)(C(F)(F)F)C(F)(F)F)c(F)c1F)(C(F)(F)F)C(F)(F)F,T/C,[1],96 % of control
same,T/C,[4],104 % of control
same,T/C,"endpoint: mean survival time, dose: 400.0 mg/kg/injection, schedule: Q04DX003 (ip), vehicle: saline with Tween-80",96 % of control
Cc1cc(C)[nH]c(=O)n1,T/C,[6],94 % of control
same,T/C,[8],102 % of control
same,T/C,[10],94 % of control
C/C=C(\C)c1cc(=O)c2c(C)cc3c(c2o1)C(=O)c1c(O)c(C2CC(C)(N(C)C)C(O)C(C)O2)cc(C2CC(N(C)C)C(O)C(C)O2)c1C3=O (stereo unspecified),T/C,"endpoint: mean survival time, dose: 0.38 mg/kg/injection, schedule: Q01DX009 (ip), vehicle: saline",102 % of control
same,T/C,"endpoint: mean survival time, dose: 0.62 mg/kg/injection, schedule: Q01DX009 (ip), vehicle: saline",115 % of control
same,T/C,"endpoint: mean survival time, dose: 0.63 mg/kg/injection, schedule: Q01DX009 (ip), vehicle: saline",116 % of control
same,T/C,"endpoint: mean survival time, dose: 0.75 mg/kg/injection, schedule: Q01DX009 (ip), vehicle: saline",109 % of control
same,T/C,"endpoint: mean survival time, dose: 1.25 mg/kg/injection, schedule: Q01DX009 (ip), vehicle: saline",113 % of control and 105 % of control
same,T/C,"endpoint: mean survival time, dose: 1.5 mg/kg/injection, schedule: Q01DX009 (ip), vehicle: saline",113 % of control
same,T/C,"endpoint: mean survival time, dose: 3.0 mg/kg/injection, schedule: Q01DX009 (ip), vehicle: saline",107 % of control
same,T/C,"endpoint: mean survival time, dose: 3.13 mg/kg/injection, schedule: Q01DX009 (ip), vehicle: saline with Tween-80",98 % of control
same,T/C,"endpoint: mean survival time, dose: 31.25 micrograms/kg/injection, schedule: Q01DX009 (ip), vehicle: saline",103 % of control
same,T/C,"endpoint: mean survival time, dose: 62.5 micrograms/kg/injection, schedule: Q01DX009 (ip), vehicle: saline",115 % of control
same,T/C,"endpoint: mean survival time, dose: 125.0 micrograms/kg/injection, schedule: Q01DX009 (ip), vehicle: saline",111 % of control
same,T/C,"endpoint: mean survival time, dose: 156.25 micrograms/kg/injection, schedule: Q01DX009 (ip), vehicle: saline",119 % of control
same,T/C,"endpoint: mean survival time, dose: 250.0 micrograms/kg/injection, schedule: Q01DX009 (ip), vehicle: saline",115 % of control
same,T/C,"endpoint: mean survival time, dose: 500.0 micrograms/kg/injection, schedule: Q01DX009 (ip), vehicle: saline",115 % of control
same,T/C,"endpoint: mean survival time, dose: 625.0 micrograms/kg/injection, schedule: Q01DX009 (ip), vehicle: saline",104 % of control
same,T/C,"endpoint: mean survival time, dose: 1000.0 micrograms/kg/injection, schedule: Q01DX009 (ip), vehicle: saline",105 % of control
same,T/C,"endpoint: mean survival time, dose: 1250.0 micrograms/kg/injection, schedule: Q01DX009 (ip), vehicle: saline",120 % of control
same,T/C,"endpoint: mean survival time, dose: 2500.0 micrograms/kg/injection, schedule: Q01DX009 (ip), vehicle: saline",95 % of control
same,T/C,"endpoint: median survival time, dose: 3.13 mg/kg/injection, schedule: Q01DX001 (ip), vehicle: saline with Tween-80",111 % of control
same,T/C,"endpoint: median survival time, dose: 6.25 mg/kg/injection, schedule: Q01DX001 (ip), vehicle: saline with Tween-80",111 % of control
same,T/C,"endpoint: median survival time, dose: 12.5 mg/kg/injection, schedule: Q01DX001 (ip), vehicle: saline with Tween-80",122 % of control
same,T/C,"endpoint: median survival time, dose: 25.0 mg/kg/injection, schedule: Q01DX001 (ip), vehicle: saline with Tween-80",111 % of control
